# Measurements taken from patent US11345700B2, “Methods of preparing inhibitors of influenza viruses replication” (priority 2013, dated 2022).
# Read-outs that look alike come from different tables or passages of the source. Marks after values point to notes of the source that are not given here.
# Assays:
# [1] = 2 weeks
# influenza A/PR/8/34 = assay: In vivo combination of Compound (1) with zanamivir, influenza A challenge in mice; settings: no Compound (1)
# From the text: Efficiency quotient, a composite measure of survival, bodyweight loss and lung function (% survival/(% body weight loss at Day 8)*(Penh at Day 6)) is summarized in Table 19B.
# A/Puerto Rico/8/34 [2] = assay type: cell-based, influenza A virus
# A/Puerto Rico/8/34 [3] = tested on: A/Puerto Rico/8/34
# [4] = tested on: Influenza A/California/04/2009 (pndH1N1) virus; assay type: in vivo, BALB/c mice; settings: mouse, in vivo
# [5] = tested on: Influenza A/Victoria/3/75 (H3N2) virus; assay type: in vivo, BALB/c mice; settings: mouse, in vivo
# [6] = tested on: Influenza A/Vietnam/1203/2004 (H5N1) virus; assay type: in vivo, BALB/c mice; settings: 10 mg/kg p.o. twice a day for 10 days; Treatment (+48 h)
# influenza A virus = assay: Mouse influenza A model: prophylactic dose response and delayed treatment, survival and body weight loss; assay type: in vivo, mice; settings: 10 mg/kg BID
# From the text: The prophylactic dose response of Compound (1) was investigated in the mouse influenza A model. […] All of the mice that received vehicle alone succumbed to the infection by study day 9 and had lost, on average, ˜32% of their body weight (BW).
# All vehicle controls succumbed to disease by study days 8 or 9.
# influenza A = assay: Mouse model of influenza A: lung viral titers; assay type: in vivo, mice; settings: Study 1, 10 mg/kg BID from 24 h post infection for 5 days
# [7] = in Nitromethane, ambient temperature
# [8] = Zanamivir 0.3 mg/kg IN x 1, 24 h prior to infection
# [9] = Zanamivir 1 mg/kg IN x 1, 24 h prior to infection
# [10] = Zanamivir 3 mg/kg IN x 1, 24 h prior to infection
# [11] = treatment start +24 h relative to infection
# [12] = treatment start +48 h relative to infection
# [13] = treatment start +72 h relative to infection
# [14] = treatment start −2 h relative to infection
compound,measurement,setting,value
Cl.Cl.O.O=C(O)[C@H]1C2CCC(CC2)[C@@H]1Nc1nc(-c2c[nH]c3ncc(F)cc23)ncc1F.O=C(O)[C@H]1C2CCC(CC2)[C@@H]1Nc1nc(-c2c[nH]c3ncc(F)cc23)ncc1F [Form A HCl salt of Compound (1)],Sol.,[1],0.6 mg/mL
same,Sol.,[1]; [7],<0.1 mg/mL
"CC(=O)N[C@H]1[C@H]([C@H](O)[C@H](O)CO)OC(C(=O)O)=C[C@@H]1N=C(N)N [Zanamivir, reference compound]",Efficiency Quotient (% survival/(% body weight loss at Day 8)*(Penh at Day 6)),influenza A/PR/8/34; [8],0.44
same,Survival Rate,influenza A/PR/8/34; [8],37.5
same,Efficiency Quotient (% survival/(% body weight loss at Day 8)*(Penh at Day 6)),influenza A/PR/8/34; [9],0.73
same,Survival Rate,influenza A/PR/8/34; [9],50
same,Efficiency Quotient (% survival/(% body weight loss at Day 8)*(Penh at Day 6)),influenza A/PR/8/34; [10],0.73
same,Survival Rate,influenza A/PR/8/34; [10],62.5
same,"Synergy Volume, 95% Confidence",A/Puerto Rico/8/34 [2],268
same,C.I. (combination index) values at the 50% effect level,A/Puerto Rico/8/34 [3],0.64
NC(=O)c1nc(F)c[nH]c1=O [favipiravir],"Synergy Volume, 95% Confidence",A/Puerto Rico/8/34 [2],317
same,C.I. (combination index) values at the 50% effect level,A/Puerto Rico/8/34 [3],0.89
"CCOC(=O)C1=C[C@@H](OC(CC)CC)[C@H](NC(C)=O)[C@@H](N)C1 [Oseltamivir, reference compound]",Mean Lung Parameters (Day 6): Score (hemorrhage score 0-4),[4],1.0
same,Mean Lung Parameters (Day 6): Virus Titer,[4],7.9 Log10 CCID50/g
same,Mean Lung Parameters (Day 6): Weight,[4],178 mg
same,Survivors/Total,[4],10/10***
same,MDD ± SD (mean day of death of mice that died on or before day 21),[5],7.0
same,Mean Lung Parameters (Day 6): Score (hemorrhage score 0-4),[5],1.7
same,Mean Lung Parameters (Day 6): Virus Titer,[5],7.0 Log10 CCID50/g
same,Mean Lung Parameters (Day 6): Weight,[5],218 mg
same,Survivors/Total,[5],9/10***
same,MDD ± SD (mean day of death of mice that died on or before day 21),[6],9.5 ± 1.2
same,Mean Lung Parameters (Day 6): Virus Titer,[6],5.22 ± 0.38 Log10 CCID50/g
same,Survivors/Total,[6],0/10
same,survival,influenza A virus; same experiment (prophylactic),All of the oseltamivir-administered mice survived
same,protection from death,influenza A virus; only when dosing was initiated 24 h or less post infection,complete protection
same,Percent Body Weight Loss on Study Day 8,influenza A virus; [11],−28.9%
same,Percent Survival,influenza A virus; [11],100%
same,Percent Body Weight Loss on Study Day 8,influenza A virus; [12],−31.1%
same,Percent Survival,influenza A virus; [12],80%
same,Percent Body Weight Loss on Study Day 8,influenza A virus; [13],−31.3%
same,Percent Survival,influenza A virus; [13],0%
same,Percent Body Weight Loss on Study Day 8,influenza A virus; [14],−19.1%
same,Percent Survival,influenza A virus; [14],100%
same,Log10 Reduction vs. Vehicle,influenza A; study day 6,−0.15
same,Lung Viral Titer,influenza A; titers on study day 6,6.05 Log10 TCID50
same,C.I. (combination index) values at the 50% effect level,A/Puerto Rico/8/34 [3],0.58
O=C(O)[C@H]1C2CCC(CC2)[C@@H]1Nc1nc(-c2c[nH]c3ncc(F)cc23)ncc1F [Form A free base Compound (1)],Sol.,[1],<0.1 mg/mL
same,Sol.,[1]; [7],0.3 mg/mL
CCC(CC)O[C@@H]1C=C(C(=O)O)C[C@H](N)[C@H]1NC(C)=O [oseltamivir carboxylate],"Synergy Volume, 95% Confidence",A/Puerto Rico/8/34 [2],312
